In US4980349A, “Sulphonamides derived from diarylmethanes, the processes for preparing them and pharmaceutical compositions containing them” (SANOFI, priority 1986, dated 1990):
Where two headings read alike, the source gives them in different places.

Columns and labels:
[1] = tested on: rat hind foot kaolin-induced oedema; assay: Kaolin-induced arthritis test, first experiment (decrease in inflammation, foot volume); format: in vivo; conditions: 1 h before kaolin, Table IX, read-out: percentage decrease in the inflammation
Outline: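 Kaolin (0.05 ml of sterile 10% suspension) injected into metatarsal flexor sheath of rat hind foot; compounds given orally by stomach tube 1 h before. Foot volume measured by plethysmometer during early oedema (maximal 4–6 h). Value is % decrease in inflammation versus controls, mean of 10 animals per dose.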

Oral LD50 in rats = conditions: rat, in vivo, male Wistar rats, 200-400 g, 14 days observation, read-out: approximate oral LD50
Procedure: (§1) The compounds were suspended in a 3% strength solution of gum arabic so as to supply, in a volume of 2 ml for the rats, the equivalent of 50, 100, 200, 400 and 800 mg/kg, and, in a volume of 1 ml for the mice, 100, 200, 400, 800 and 1,600 mg/kg and, for 1573 and 1579, 3,200 mg/kg.
(§2) Gavage was performed by means of a metal tube, on batches of 5 animals for each series.
(§3) The animals were observed daily for 14 days.

thromboxane synthetase = assay: TXB2 production in human platelet suspension (thromboxane synthetase); format: cell-based; conditions: human platelets, arachidonic acid 5 μg/ml, 37° C., read-out: IC50, inhibition of the production of TXB2
Procedure: The platelets are incubated with arachidonic acid (5 μg/ml) in the presence of increasing doses of test products (10^-6l M to 5×10^-5 M). Platelets stimulated by arachidonic acid (AA) manufacture a large amount of thromboxane A2 (TXA2), which can be measured radioimmunologically in the form of a stable metabolite TXB2.
The assay of the amount of TXB2 in the medium is performed after a 1- to 15- minute incubation at 37° C., the measurements being made in comparison with a control suspension which has not been incubated with the test products.
Results: These are expressed as IC50, that is to say as the concentration of the test product which permits 50% inhibition of the production of TXB2.

Oral LD50 in mice = conditions: mouse, in vivo, female Swiss CF mice, 20 g, 14 days observation, read-out: approximate oral LD50
Procedure: as §1, §2, §3

[2] = tested on: pain threshold of brewer's yeast inflamed rat hind foot; assay: Randall and Sellitto's test (analgesic activity); format: in vivo; conditions: for change in vivo at 25 mg/kg: 25 mg/kg oral; for change in vivo at 25 mg/kg / change in vivo at 50 mg/kg / change in vivo at 100 mg/kg: read-out: percentage increase in the mean pain threshold; for change in vivo at 50 mg/kg: 50 mg/kg oral; for change in vivo at 100 mg/kg: 100 mg/kg oral; for ED50: po, analgesia, read-out: 50% active dose
Outline: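 Rats had 0.1 ml 20% brewer's yeast suspension injected under the hind-foot plantar aponeurosis; compounds dosed orally by stomach tube 1 h before yeast. Pain threshold was the pressure eliciting foot withdrawal, read at the 4–6 h plateau; result is % increase in mean threshold versus untreated controls, 10 rats per group.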

[3] = tested on: biosynthesis of leukotrienes C4 (LTC4), human polymorphonuclear leukocytes; assay: LTC4 production in human polymorphonuclear leukocytes; format: cell-based; conditions: Leukocyte, 0.25 h, ionophore A 23187 5 μM, 15 min, 37° C., read-out: IC50, inhibition of the production of LTC4
Procedure: Human polymorphonuclear Leukocytes are stimulated by calcium ionophore A 23187 (Calbiochem, 5 μM), in the presence or absence of the test products.
After 15 minutes' incubation at 37° C., assay of the leukotrienes C4 (LTC4) is performed radioimmunologically.
The results are expressed as IC50, the concentration producing 50% inhibition of the production of LTC4, by comparison with a control suspension which has not been incubated in the presence of the test products.

5-lipoxygenase = assay: Production of LTB4 and 5-HETE by human leukocytes incubated with arachidonic acid; format: cell-based; conditions: ionophore A 23187 5 μM, arachidonic acid 10 μg/ml
Procedure: Human polymorphonuclear leukocytes suspended with arachidonic acid and stimulated by calcium ionophore produce leukotrienes B4 (LTB4).
The test consists in incubating fresh human leukocytes with arachidonic acid at a dose of 10 μg/ml to which a tracer dose of tritium-labelled arachidonic acid has been added. The leukocytes are stimulated with calcium ionophore A 23187 (Calbiochem, 5 μM) and the amount of 5-hydroxyeicosatetraenoic acid (5-HETE) and LTB4 produced is then assayed by HPLC.
5-HETE is the metabolite produced from arachidonic acid by 5-lipoxygenase, and from which LTB4 is produced by the action of an isomerase.
The results are expressed as an integration of the surface of the peak obtained in HPLC by comparison with that obtained with control leukocytes which have not been incubated with the test products.
The results in brackets are expressed as a percentage inhibition of the production of 5-HETE and LTB4.

Row | Structure (SMILES) | IC50 (thromboxane synthetase) [µM] | IC50 [3] [µM] | change in vivo at 25 mg/kg ([1]; 25 mg/kg oral) [%] | change in vivo at 50 mg/kg ([1]; 50 mg/kg oral) [%] | change in vivo at 100 mg/kg ([1]; 100 mg/kg oral) [%] | LD50 at 336 h (Oral LD50 in rats) [mg/kg] | LD50 at 336 h (Oral LD50 in mice) [mg/kg] | change in vivo at 25 mg/kg ([2]; first experiment, Table XII) [%] | change in vivo at 50 mg/kg ([2]; first experiment, Table XII) [%] | change in vivo at 100 mg/kg ([2]; first experiment, Table XII) [%] | change in vivo at 25 mg/kg ([2]; second experiment, Table XIIa) [%] | change in vivo at 50 mg/kg ([2]; second experiment, Table XIIa) [%] | change in vivo at 100 mg/kg ([2]; second experiment, Table XIIa) [%] | ED50 ([2]; second experiment, Table XIIa) [mg/kg] | 5-HETE, integration of the surface of the HPLC peak (5-lipoxygenase) | percentage inhibition of the production of 5-HETE (in brackets) (5-lipoxygenase) [%] | percentage inhibition of the production of LTB4 (in brackets) (5-lipoxygenase) [%] | LTB4, integration of the surface of the HPLC peak (5-lipoxygenase)
1 | O=C(O)CCCCCCCCCCNS(=O)(=O)c1ccc(Cl)cc1C(=O)c1ccccc1 [Compound 1572, 11-(2-benzoyl-4-chlorobenzenesulphonamido)undecanoic acid] | 12 | – | -17 | -26 | -50 | > 800 | > 1600 | 18 | 30 | 55 | – | – | – | – | – | – | – | –
2 | O=C(O)CCCCCCCCCCNS(=O)(=O)c1ccc(Cl)cc1C(=O)c1ccccc1Cl [Compound 1574, 11-[2-(2-chlorobenzoyl)-4-chlorobenzenesulphonamido]undecanoic acid] | 8 | 3 | – | – | – | – | > 1600 | – | – | – | 45 | 50 | 50 | 50 | – | – | – | –
3 | O=C(O)CCCCCCCCCCCNS(=O)(=O)c1ccc(Cl)c(C(=O)c2ccccc2)c1 [Compound 1736, 12-(3-benzoyl-4-chlorobenzenesulphonamido)dodecanoic acid] | 6.2 | 3 | – | – | – | – | – | – | – | – | 52 | 58 | 60 | 25 | 384 | 89.6 | 100 | –

Further lines, with some results ahead:

Row | IC50 (thromboxane synthetase) [µM] | IC50 [3] [µM] | Structure (SMILES) | change in vivo at 25 mg/kg ([1]; 25 mg/kg oral) [%] | change in vivo at 50 mg/kg ([1]; 50 mg/kg oral) [%] | change in vivo at 100 mg/kg ([1]; 100 mg/kg oral) [%] | LD50 at 336 h (Oral LD50 in rats) [mg/kg] | LD50 at 336 h (Oral LD50 in mice) [mg/kg] | change in vivo at 25 mg/kg ([2]; first experiment, Table XII) [%] | change in vivo at 50 mg/kg ([2]; first experiment, Table XII) [%] | change in vivo at 100 mg/kg ([2]; first experiment, Table XII) [%] | change in vivo at 25 mg/kg ([2]; second experiment, Table XIIa) [%] | change in vivo at 50 mg/kg ([2]; second experiment, Table XIIa) [%] | change in vivo at 100 mg/kg ([2]; second experiment, Table XIIa) [%] | ED50 ([2]; second experiment, Table XIIa) [mg/kg] | 5-HETE, integration of the surface of the HPLC peak (5-lipoxygenase) | percentage inhibition of the production of 5-HETE (in brackets) (5-lipoxygenase) [%] | percentage inhibition of the production of LTB4 (in brackets) (5-lipoxygenase) [%] | LTB4, integration of the surface of the HPLC peak (5-lipoxygenase)
4 | 7.8 | 1.7 | O=C(O)CCCCCCCCCCNS(=O)(=O)c1ccc(Cl)cc1C(O)c1ccccc1Cl (centres unmarked) [Compound 1796] | – | – | – | – | – | – | – | – | 50 | 55 | 58 | 25 | 127 | – | – | 152
5 | 5 | 1 | O=C(O)CCCCCCCCCCNS(=O)(=O)c1ccc(Cl)cc1Cc1ccccc1Cl [Compound 1797] | – | – | – | – | – | – | – | – | 50 | 55 | 58 | – | – | – | – | –
